Laboratory results as given in patent US9326506B2, “Preparation method, agricultural composition and applications of natural brassinolide analogs” (CHENGDU NEWSUN CROPSCIENCE CO., LTD, priority 2012, dated 2016).

Tested on: soybean
Test: Farmland test on soybean (germination, height, fresh weight, dry weight)
Format: in vivo
Conditions: relative to the negative control (pure water)
Procedure: BR1, BR2, BR3, BR4, BR5 and BR6 were mixed into a mixture of brassinolide analogues (referred to as “BRs”, in which the weight ratio of BR1:BR2:BR3:BR4:BR5:BR6 is 0.4:0.4:0.4:0.4:0.4:98). pure water was used as a negative control, while chemically synthesized homobrassinolide (purchased from Yunda Technology Co., Ltd.) was used as a positive control. Respectively BRs and the positive control were diluted to the concentrations of 1 ppm, 0.5 ppm, 0.1 ppm, 0.05 ppm, 0.01 ppm, 0.005 ppm, 0.001 ppm, 0.0005 ppm and 0.0001 ppm. The subjects for the experimentation are soybean seeds in an experimental farmland. We sowed the soybean seeds on 9th July, surveyed the germination on 22nd July, 23rd July and 24th July, and measured the height on 5th September […].

Structure (SMILES): CC[C@@H](C(C)C)[C@H](O)[C@@H](O)[C@@H](C)[C@H]1CC[C@H]2[C@@H]3COC(=O)[C@H]4C[C@H](O)[C@H](O)C[C@]4(C)[C@H]3CC[C@]12C [homobrassinolide]
- Effects on germination, height, fresh weight and dry weight of soybean: positive and different effects
